Here are results for one substance from PMC3229523, “Identification of Lactoferricin B Intracellular Targets Using an Escherichia coli Proteome Chip” (PLoS ONE, 2011).

Ends that are not written are not given here. * marks the point of attachment. Biotin = O=C1N[C@H]2[C@H](CS[C@H]2CCCCC(=O)*)N1

The subject of one test is nrdF knockout mutant. Kind of test: Knockout assay, nrdF knockout mutant. In kind it is cell-based, E. coli K-12. The following applies: 32 µM LfcinB, LB medium, 37°C. The method, then:
The E. coli K-12 BW25113 (isogenic parent) strain and the 16 knockout strains were obtained from the E. coli Genetic Resources at the Coli Genetic Stock Center (CGSC) at Yale University. The strains were inoculated into LB medium, and incubated at 37°C with shaking. After 16 h of incubation, the cultures were diluted to approximately 10^7 CFU/ml with LB medium. Thirty-two µM of LfcinB were then added to the cultures in a 96-well plate. PBS was used as a negative control. Cultures with LfcinB or PBS were then incubated at 37°C with shaking in a microplate reader and the growth was observed by measuring the OD595 value every 20 min for 7 h 20 min.

For the next test, the system named is YjbM. As to the kind of experiment: Fluorescence polarization assay, YjbM. In kind it is binding, E. coli. As to conditions: 100 nM DyLight 549-labeled LfcinB; protein 0.025-0.4 µM; data not shown. An excerpt: (§1) FP assays, investigations of the binding between two molecules in a homogeneous aqueous environment, were used to validate the identified 153 proteins. […] If a fluorophore only binds to a small molecule, such as peptide, the rotation of the complex is fast and the light emits in a different plane of polarization. Therefore, the degree of polarization is low. However, once a fluorophore binds to a large molecule, the bound complex is stimulated with polarized light. The light emits in the same polarized plane, and the complex is maintained in the same plane of polarization, causing an increase in the degree of polarization [22]–[24]. The amount of molecules binding to a fluorophore influences the degree of polarization. In this study, LfcinB was labeled with DyLight™ 549 as a reference value. Once the protein bound to LfcinB, like a fluorophore binds to a large molecule, a high degree of polarization is expected.
(§2) Before the assays, LfcinB was labeled with DyLight™ 549 and tested proteins were quantified with a Pierce® bicinchoninic acid (BCA™) protein assay (Thermo). To label the LfcinB, DyLight™ 549-NHS ester and LfcinB (68∶1, mole/mole) were mixed in PBS at room temperature for 1 h, a D-Salt™ polyacrylamide desalting column (Thermo) was used to remove excess dye and the labeling efficiency of the eluted solution was calculated. […]
For orientation: Fluorescence polarisation rises when a labelled molecule tumbles more slowly, as on binding a larger partner.

Another test has as its system NrdD. Kind of test: Fluorescence polarization assay, NrdD. The format is binding, E. coli. The following applies: 100 nM DyLight 549-labeled LfcinB; protein 0.025-0.4 µM; data not shown.
Text: as §1, §2

As for “Lactoferricin B (Biotin-FKCRRWQWRMKKLGAPSITCVRRAF; ends and bridges not checked) [LfcinB]”, the “growth curve with vs without LfcinB” value in the test with nrdF knockout mutant is reported as “significant inhibited”. Moreover, the “binding to YjbM” value with YjbM is listed as “confirmed to bind to LfcinB”. Moreover, the “binding to NrdD” value in the test on NrdD is “confirmed to bind to LfcinB”.
